The record followed here is ChEMBL document CHEMBL1201862, “PubChem BioAssay data set” (2004).

Structures are written as SMILES. The source made the active and inactive calls.

In experiment [1] the target is Serine/threonine-protein kinase pim-1 (Homo sapiens, UniProt P11309). It counts as functional.
Experiment [2] has as its target Mitogen-activated protein kinase kinase kinase kinase 2 (Homo sapiens, UniProt Q12851). Type of experiment: functional.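 Also: measured as one member of a kinome-wide kinase panel, with MAP4K2 as the panel entry.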
The target in experiment [3] is Cyclin-dependent kinase 8 (Homo sapiens, UniProt P49336). The experiment in a line: Navigating the Kinome. Panel member name: CDK8. Type of experiment: functional.
Experiment [4] deals with Dual specificity mitogen-activated protein kinase kinase 2 (Homo sapiens, UniProt P36507). The experiment in a line: Navigating the Kinome. Panel member name: MAP2K2. It counts as functional.
Experiment [5] addresses Melanin-concentrating hormone receptor 1 (Homo sapiens, UniProt Q99705). The experiment can be described thus: Late-stage fluorescence-based counterscreen for antagonists of the G-protein coupled receptor 7 (GPR7): cell-based dose response assay to identify antagonists of the melanin-concentrating hormone receptor 1 (MCHR1) Set 5. Type of experiment: functional. For orientation: The purpose of a counterscreen is to sort out artefacts and off-target activity.

Experiment [6] concerns INS1. The experiment in a line: beta-cell survival under cytokine stress – INS-1E, ATP luminescence, dry powder, dose response (AID 488844). It counts as functional, cell-based. As to conditions: Rattus norvegicus.
A short description of experiment [7]: suppression of NO production in INS-1E cells – cell-based, Griess absorbance, dry powder, set 3, dose response (AID 488870). It counts as functional. Particulars: Rattus norvegicus.
In experiment [8] the test system is INS1. The experiment can be described thus: suppression of NO production in INS-1E cells – cell-based, Griess absorbance, dry powder, set 2, dose response (AID 488868). It counts as functional. As to conditions: Rattus norvegicus.
The target in experiment [9] is Benomyl/methotrexate resistance protein (Candida albicans, UniProt P28873). The experiment can be described thus: Candida albicans Mdr1 pump inhibition curves – singleplex, Cherry Pick1 hits, dose response (AID 588608). It counts as functional.
For experiment [10], the target named is Multidrug resistance protein CDR1 (Candida albicans, UniProt P43071). The experiment can be described thus: inhibition of Nile Red efflux via Candida CDR1 – S. cerevisiae AD1-8u, singleplex, Cherry Pick1 hits, dose response (AID 588606). Type of experiment: functional.
Experiment [11] has as its target T1, Tyrosine-protein kinase receptor TYRO3 (Homo sapiens, UniProt Q06418).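 Also: TYRO3 value obtained as one member of a kinome-wide profiling panel.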
T1 sequence (Q06418 whole entry): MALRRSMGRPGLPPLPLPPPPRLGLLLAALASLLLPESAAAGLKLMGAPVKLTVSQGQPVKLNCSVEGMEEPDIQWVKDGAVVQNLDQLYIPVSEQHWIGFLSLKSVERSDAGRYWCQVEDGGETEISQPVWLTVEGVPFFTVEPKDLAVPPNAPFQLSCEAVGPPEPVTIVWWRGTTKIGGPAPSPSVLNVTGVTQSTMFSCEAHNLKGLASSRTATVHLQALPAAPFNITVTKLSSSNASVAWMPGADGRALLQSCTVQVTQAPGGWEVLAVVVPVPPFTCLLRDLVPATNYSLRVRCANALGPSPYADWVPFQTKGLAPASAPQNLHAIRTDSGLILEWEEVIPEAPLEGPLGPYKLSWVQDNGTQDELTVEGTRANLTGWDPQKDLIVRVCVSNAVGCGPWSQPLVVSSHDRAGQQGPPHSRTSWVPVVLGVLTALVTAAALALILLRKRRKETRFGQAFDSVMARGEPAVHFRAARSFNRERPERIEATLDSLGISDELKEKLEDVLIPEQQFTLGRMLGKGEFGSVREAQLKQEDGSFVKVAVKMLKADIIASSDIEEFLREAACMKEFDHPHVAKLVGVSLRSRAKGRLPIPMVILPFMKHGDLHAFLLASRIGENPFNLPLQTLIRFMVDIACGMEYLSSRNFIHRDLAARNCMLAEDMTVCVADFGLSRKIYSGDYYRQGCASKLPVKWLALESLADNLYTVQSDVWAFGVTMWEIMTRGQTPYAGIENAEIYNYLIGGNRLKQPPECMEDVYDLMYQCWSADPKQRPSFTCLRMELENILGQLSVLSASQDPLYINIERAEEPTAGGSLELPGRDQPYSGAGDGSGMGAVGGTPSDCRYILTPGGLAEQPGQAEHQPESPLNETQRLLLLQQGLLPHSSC
Type of experiment: functional.

Experiment [12] deals with Casein kinase I isoform alpha (Homo sapiens, UniProt P48729). It counts as functional.
A further experiment concerns the target LIM domain kinase 1 (Homo sapiens, UniProt P53667). The experiment in a line: Navigating the Kinome. Panel member name: LIMK1. It counts as functional.
Experiment [13] concerns the target T2, Serine/threonine-protein kinase Chk1 (Homo sapiens, UniProt O14757).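 Also: measured as one member of a kinome-wide kinase profiling panel.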
T2 sequence (O14757 whole entry): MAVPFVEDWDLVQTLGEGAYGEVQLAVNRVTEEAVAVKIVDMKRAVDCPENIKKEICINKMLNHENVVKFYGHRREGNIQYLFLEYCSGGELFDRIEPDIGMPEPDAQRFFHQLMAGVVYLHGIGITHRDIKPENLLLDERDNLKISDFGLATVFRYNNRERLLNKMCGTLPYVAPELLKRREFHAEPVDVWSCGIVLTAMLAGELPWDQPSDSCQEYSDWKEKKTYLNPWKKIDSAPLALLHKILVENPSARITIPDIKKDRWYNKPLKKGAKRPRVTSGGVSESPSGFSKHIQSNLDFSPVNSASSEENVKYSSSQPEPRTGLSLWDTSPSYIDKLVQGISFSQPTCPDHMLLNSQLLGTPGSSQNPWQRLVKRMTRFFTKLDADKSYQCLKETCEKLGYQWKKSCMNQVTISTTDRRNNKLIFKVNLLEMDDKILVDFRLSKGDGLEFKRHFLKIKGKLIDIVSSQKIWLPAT
It counts as functional.

In experiment [14] the target is G protein-coupled receptor kinase 5 (Homo sapiens, UniProt P34947). The experiment in a line: Navigating the Kinome. Panel member name: GPRK5. It counts as functional.
Experiment [15] concerns the target Dual specificity tyrosine-phosphorylation-regulated kinase 1B (Homo sapiens, UniProt Q9Y463). The experiment in a line: Navigating the Kinome. Panel member name: DYRK1B. It counts as functional.
Experiment [16] deals with Leucine-rich repeat serine/threonine-protein kinase 2 (Homo sapiens, UniProt Q5S007). Type of experiment: functional.
For experiment [17], the target named is Dual specificity protein kinase CLK4 (Homo sapiens, UniProt Q9HAZ1). It counts as functional.
The target in experiment [18] is Leukocyte tyrosine kinase receptor (Homo sapiens, UniProt P29376). The experiment can be described thus: Navigating the Kinome. Panel member name: LTK. It counts as functional.
A further experiment deals with T3, Aurora kinase A (Homo sapiens, UniProt O14965).
T3 sequence (O14965 whole entry): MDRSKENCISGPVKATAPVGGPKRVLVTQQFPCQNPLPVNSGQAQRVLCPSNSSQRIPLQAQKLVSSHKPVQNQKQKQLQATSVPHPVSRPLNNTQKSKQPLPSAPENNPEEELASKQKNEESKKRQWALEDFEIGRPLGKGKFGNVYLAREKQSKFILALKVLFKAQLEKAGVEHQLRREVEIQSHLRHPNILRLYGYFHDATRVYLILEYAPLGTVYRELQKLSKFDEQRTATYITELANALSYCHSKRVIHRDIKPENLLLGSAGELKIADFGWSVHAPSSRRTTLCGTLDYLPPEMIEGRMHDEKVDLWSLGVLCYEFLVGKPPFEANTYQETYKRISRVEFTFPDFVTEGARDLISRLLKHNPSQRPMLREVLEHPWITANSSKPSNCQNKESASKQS
It counts as functional.

Experiment [19] deals with Vascular endothelial growth factor receptor 2 (Homo sapiens, UniProt P35968). Type of experiment: functional.
The next experiment concerns the target Aurora kinase B (Homo sapiens, UniProt Q96GD4). It counts as functional.

As usually defined, the Ki is the dissociation constant of the complex between target and ligand, obtained from inhibition or displacement. For orientation: IC50 means the concentration needed to halve the response being measured. One may read the AC50 as the concentration at which the activity in the assay is half-maximal. As usually defined, the EC50 is the concentration needed to bring the measured effect to its halfway point.

Chain of Leukocyte tyrosine kinase receptor (P29376 whole entry): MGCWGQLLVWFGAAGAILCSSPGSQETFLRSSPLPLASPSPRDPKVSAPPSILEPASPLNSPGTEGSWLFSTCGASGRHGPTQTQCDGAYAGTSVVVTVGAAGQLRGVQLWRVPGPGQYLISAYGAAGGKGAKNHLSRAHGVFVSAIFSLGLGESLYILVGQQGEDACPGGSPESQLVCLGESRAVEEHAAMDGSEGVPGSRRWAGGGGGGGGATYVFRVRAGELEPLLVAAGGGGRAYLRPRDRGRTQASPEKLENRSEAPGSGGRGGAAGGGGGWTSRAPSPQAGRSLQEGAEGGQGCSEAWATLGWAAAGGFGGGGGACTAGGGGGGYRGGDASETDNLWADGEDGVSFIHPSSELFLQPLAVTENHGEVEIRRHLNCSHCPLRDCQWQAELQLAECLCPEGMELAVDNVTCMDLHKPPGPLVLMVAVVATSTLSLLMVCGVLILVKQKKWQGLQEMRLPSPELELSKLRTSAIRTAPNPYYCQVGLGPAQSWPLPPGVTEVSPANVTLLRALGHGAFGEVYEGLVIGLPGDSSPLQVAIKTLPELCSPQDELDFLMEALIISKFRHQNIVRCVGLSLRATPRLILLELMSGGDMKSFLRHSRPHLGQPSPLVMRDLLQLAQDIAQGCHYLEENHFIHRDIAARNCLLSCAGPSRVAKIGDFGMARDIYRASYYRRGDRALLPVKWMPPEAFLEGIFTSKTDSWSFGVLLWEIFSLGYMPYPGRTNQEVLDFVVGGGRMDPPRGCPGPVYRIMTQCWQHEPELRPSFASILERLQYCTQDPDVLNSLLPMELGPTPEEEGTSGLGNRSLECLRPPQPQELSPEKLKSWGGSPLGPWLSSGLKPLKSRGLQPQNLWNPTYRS
Chain of Dual specificity protein kinase CLK4 (Q9HAZ1 whole entry): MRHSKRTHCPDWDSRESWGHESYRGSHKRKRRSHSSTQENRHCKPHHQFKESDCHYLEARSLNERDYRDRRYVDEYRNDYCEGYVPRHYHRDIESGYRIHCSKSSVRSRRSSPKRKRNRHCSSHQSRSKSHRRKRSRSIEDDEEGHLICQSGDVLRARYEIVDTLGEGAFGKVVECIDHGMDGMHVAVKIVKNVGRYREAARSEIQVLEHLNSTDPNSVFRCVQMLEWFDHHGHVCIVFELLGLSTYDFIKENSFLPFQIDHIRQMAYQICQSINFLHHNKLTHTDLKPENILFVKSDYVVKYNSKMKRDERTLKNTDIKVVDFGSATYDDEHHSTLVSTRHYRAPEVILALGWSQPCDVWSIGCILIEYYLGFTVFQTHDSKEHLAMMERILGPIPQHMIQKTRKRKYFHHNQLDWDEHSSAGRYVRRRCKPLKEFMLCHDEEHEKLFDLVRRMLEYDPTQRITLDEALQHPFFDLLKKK
Chain of Leucine-rich repeat serine/threonine-protein kinase 2 (Q5S007 whole entry): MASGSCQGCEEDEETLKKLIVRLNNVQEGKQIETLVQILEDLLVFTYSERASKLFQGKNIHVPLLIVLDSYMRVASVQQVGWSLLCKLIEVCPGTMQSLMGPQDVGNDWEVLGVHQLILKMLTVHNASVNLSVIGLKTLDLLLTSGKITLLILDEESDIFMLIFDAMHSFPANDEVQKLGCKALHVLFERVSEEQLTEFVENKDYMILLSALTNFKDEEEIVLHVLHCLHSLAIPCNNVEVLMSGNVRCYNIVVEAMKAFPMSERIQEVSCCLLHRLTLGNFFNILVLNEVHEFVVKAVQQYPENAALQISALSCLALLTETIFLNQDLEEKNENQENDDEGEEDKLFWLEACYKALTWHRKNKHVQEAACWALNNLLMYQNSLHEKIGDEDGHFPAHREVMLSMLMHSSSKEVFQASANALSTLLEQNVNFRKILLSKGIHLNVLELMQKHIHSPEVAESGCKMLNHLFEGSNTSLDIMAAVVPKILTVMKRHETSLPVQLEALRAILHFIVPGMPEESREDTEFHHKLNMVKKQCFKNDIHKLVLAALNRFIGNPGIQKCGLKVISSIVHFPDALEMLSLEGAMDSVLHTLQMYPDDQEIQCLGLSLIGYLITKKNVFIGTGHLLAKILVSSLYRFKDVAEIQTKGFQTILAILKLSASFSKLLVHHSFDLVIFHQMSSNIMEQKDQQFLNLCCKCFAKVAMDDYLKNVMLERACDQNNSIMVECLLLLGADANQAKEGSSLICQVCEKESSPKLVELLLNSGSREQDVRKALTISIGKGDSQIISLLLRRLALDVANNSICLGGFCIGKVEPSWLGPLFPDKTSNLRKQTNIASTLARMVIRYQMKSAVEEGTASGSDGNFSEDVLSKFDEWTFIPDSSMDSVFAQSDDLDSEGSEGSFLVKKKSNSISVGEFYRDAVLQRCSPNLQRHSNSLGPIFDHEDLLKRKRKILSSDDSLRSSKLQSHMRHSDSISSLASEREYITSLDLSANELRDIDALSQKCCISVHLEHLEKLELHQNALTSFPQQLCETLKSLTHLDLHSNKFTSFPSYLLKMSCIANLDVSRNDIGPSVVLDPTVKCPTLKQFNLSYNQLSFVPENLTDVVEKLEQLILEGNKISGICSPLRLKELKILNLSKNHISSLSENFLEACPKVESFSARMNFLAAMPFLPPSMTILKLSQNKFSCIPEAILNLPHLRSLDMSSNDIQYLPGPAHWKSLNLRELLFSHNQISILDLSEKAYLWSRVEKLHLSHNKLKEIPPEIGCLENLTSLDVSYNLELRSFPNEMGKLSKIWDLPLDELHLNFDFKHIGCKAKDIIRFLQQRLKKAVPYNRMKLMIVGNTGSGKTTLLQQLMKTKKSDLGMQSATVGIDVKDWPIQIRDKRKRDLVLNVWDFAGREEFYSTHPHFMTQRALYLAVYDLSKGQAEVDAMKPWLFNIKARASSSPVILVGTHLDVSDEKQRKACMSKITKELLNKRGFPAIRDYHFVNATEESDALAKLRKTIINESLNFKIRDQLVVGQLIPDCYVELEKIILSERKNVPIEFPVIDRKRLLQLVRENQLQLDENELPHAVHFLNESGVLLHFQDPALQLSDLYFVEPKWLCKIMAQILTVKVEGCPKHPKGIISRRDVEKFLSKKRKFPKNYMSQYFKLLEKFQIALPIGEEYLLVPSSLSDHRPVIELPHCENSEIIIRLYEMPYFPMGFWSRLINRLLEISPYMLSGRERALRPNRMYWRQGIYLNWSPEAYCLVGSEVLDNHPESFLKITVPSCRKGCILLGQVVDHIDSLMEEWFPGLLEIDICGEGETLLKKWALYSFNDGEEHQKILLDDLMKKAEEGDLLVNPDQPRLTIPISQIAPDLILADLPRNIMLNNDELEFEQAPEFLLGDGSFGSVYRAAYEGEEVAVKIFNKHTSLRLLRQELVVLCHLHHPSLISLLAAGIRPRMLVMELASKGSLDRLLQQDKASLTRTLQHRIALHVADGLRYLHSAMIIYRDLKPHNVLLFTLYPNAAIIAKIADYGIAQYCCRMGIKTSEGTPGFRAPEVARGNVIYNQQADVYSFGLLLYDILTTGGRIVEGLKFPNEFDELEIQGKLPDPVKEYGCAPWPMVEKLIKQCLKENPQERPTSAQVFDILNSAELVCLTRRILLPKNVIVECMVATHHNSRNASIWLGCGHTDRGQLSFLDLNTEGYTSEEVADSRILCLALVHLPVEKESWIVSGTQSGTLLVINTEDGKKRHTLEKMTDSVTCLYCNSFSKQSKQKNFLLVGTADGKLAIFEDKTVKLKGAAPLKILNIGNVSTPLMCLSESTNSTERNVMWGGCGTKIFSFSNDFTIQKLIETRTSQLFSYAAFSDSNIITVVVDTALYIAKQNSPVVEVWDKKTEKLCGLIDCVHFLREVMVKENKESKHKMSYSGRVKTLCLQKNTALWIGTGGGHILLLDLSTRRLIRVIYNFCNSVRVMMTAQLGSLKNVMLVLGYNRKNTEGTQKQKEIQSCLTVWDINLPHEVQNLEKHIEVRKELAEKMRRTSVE
Chain of Casein kinase I isoform alpha (P48729 whole entry, the tested form may be a part, canonical isoform): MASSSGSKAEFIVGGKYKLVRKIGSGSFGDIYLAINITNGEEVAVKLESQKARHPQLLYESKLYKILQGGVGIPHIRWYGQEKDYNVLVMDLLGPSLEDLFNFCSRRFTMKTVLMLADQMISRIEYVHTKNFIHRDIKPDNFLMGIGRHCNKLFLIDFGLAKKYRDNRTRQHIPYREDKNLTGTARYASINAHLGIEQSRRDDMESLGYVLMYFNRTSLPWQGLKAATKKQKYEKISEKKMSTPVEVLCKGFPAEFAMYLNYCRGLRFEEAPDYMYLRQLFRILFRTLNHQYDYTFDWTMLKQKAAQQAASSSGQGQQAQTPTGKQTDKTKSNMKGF
Chain of Mitogen-activated protein kinase kinase kinase kinase 2 (Q12851 whole entry): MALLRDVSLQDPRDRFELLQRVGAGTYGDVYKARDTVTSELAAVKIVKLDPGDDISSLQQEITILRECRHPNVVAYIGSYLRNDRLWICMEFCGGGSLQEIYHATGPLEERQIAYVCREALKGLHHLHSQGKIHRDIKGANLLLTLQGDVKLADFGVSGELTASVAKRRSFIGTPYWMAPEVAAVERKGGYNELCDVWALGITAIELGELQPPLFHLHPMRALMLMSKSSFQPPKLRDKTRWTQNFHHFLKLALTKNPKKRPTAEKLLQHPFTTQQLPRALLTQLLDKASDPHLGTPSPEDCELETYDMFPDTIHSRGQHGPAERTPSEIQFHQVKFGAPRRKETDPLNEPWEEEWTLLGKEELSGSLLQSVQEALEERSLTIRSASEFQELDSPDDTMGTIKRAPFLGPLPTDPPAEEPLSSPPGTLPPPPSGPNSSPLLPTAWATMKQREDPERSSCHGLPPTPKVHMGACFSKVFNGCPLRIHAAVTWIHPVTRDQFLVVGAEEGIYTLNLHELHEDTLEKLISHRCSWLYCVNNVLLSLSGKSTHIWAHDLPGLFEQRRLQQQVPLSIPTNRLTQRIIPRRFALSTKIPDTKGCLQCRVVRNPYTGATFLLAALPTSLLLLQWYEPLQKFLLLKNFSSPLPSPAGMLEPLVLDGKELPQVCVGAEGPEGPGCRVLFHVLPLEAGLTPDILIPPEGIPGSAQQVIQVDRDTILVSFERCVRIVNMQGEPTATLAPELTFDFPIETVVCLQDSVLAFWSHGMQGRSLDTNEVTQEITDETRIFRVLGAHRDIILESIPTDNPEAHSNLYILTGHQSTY

As for `Nc1cc2c(Oc3ccc(Cl)cc3)cncc2s1`, the Ki in experiment [1] is 2.51 µM (active); in experiment [2] it was 2.51 µM (active); in [3], 1 µM (active); in [4], 1.26 µM (active).

In the case of `O=c1c(Oc2ccc3c(c2)CCC3)c(Cl)cnn1Cc1cccc2ccccc12`, in experiment [5], the IC50 is 17.9 µM (inactive).

On to `C[C@@H]1CN([C@@H](C)CO)C(=O)c2cccc(NC(=O)Nc3cccc4ccccc34)c2O[C@H]1CN(C)S(=O)(=O)c1ccc(F)cc1`, for which the AC50 in the experiment with INS1 [6] was 7.41 µM (active); in experiment [7], 77.2 µM (active); with INS1 [8], 138 µM (active).

With `COc1ccc2sc(-c3ccccc3OC)c(-c3ccc(OCCN4CCOCC4)cc3)c2c1`, the values for the EC50 in [9] and in experiment [10] were 10.6 µM (active) and 10 µM (active), respectively.

As for `Nc1nnc2cccc(Cl)n12`, the Ki in experiment [11] was 50.1 µM (active); in [12] it was 79.4 µM (active); at LIM domain kinase 1 it was 63.1 µM (active); in [13] it was 63.1 µM (active); in [14], 50.1 µM (active); in experiment [15] it was 63.1 µM (active). Further, the inhibitory constant (Ki) in [16] was 100 µM (active); in experiment [17], 63.1 µM (active); in experiment [18], 100 µM (active).

Turning to `CC(C)CC(CO)NC(=O)C=Cc1cnc(N)c2ccccc12` (configuration not stated), the Ki at Aurora kinase A was 1.58 µM (active); in [19], > 5.01 µM (inactive); on Aurora kinase B, 0.0158 µM (active).
